Results reported in patent publication US12686665B2, “Bicyclic fused ring derivative or salt thereof and pharmaceutical composition comprising same” (YUHAN CORPORATION, priority 2021, dated 2026).
Where a name gives a salt, the structure may show the parent alone.

Columns and labels:
[1] = target: T1, recombinant human Lysyl Oxidase-Like 2 (LOXL2) (Homo sapiens, UniProt Q9Y4K0); assay: Amplex Red HRP-coupled amine oxidase assay, recombinant human LOXL2; assay type: biochemical; conditions: 60 min incubation with enzyme at 37° C., putrescine substrate, read-out: Inhibitory activity (IC50, nM) human LOXL2
T1 construct: purchased R&D systems
T1 sequence (Q9Y4K0 26-774): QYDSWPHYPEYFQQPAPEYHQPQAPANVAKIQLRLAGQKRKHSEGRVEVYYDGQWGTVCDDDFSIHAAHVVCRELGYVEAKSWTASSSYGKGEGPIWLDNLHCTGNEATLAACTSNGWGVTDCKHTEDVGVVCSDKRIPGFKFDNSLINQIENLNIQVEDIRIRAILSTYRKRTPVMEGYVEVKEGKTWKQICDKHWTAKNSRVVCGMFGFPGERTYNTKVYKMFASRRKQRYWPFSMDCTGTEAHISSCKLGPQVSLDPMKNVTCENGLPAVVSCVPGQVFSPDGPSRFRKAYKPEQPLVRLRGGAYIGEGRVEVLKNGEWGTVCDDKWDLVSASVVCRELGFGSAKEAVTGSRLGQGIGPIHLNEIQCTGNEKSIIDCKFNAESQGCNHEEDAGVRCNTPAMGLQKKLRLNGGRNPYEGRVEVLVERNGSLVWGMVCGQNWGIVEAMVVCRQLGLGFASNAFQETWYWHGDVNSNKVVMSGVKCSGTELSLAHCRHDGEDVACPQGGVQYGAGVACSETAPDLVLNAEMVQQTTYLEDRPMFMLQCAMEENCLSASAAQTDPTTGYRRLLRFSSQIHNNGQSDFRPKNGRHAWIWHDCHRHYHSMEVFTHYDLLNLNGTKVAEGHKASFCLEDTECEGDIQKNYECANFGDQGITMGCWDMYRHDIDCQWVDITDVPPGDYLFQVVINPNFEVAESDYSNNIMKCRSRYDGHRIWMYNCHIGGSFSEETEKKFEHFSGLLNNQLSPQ
Outline: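 Putrescine substrate (30 mM) in 50 mM sodium phosphate pH 7.4, 37 °C; compounds preincubated 60 min with enzyme, 1% DMSO final, six-point curves. H2O2 detected via 400 μM Amplex Red/2 U/mL HRP, fluorescence (ex 530/em 590 nm) after 1 h; IC50 from four-parameter logistic fit of % signal reduction.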

[2] = target: T2, recombinant human MAO-A (monoamine oxidase-A) (Homo sapiens, UniProt P21397); assay: Amplex Red HRP-coupled amine oxidase assay, recombinant human MAO-A; assay type: biochemical; conditions: 0.5 mM tyramine substrate, read-out: Inhibitory activity (IC50, nM) MAO-A
T2 construct: purchased Sigma-Aldrich
T2 sequence (P21397 1-527): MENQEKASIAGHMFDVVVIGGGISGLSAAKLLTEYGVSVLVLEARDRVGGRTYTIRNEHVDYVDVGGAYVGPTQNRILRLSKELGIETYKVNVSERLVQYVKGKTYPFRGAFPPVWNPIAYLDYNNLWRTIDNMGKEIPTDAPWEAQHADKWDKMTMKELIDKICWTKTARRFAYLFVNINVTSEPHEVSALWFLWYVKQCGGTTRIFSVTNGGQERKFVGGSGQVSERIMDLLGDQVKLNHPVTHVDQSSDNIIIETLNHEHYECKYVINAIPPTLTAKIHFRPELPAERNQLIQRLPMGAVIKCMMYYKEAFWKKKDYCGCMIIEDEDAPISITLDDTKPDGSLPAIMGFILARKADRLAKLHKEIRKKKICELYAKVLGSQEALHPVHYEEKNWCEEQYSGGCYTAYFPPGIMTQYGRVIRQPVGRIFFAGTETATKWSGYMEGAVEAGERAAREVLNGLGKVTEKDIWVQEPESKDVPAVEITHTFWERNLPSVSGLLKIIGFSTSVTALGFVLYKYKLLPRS
Outline: (§1)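 Enzyme preincubated 60 min at 37 °C with compound (six-point curve, 1% DMSO final) in 50 mM sodium phosphate pH 7.4, then Amplex Red 400 μM and HRP 2 U/mL added with substrate: MAO-A 0.5 mM tyramine, MAO-B 1 mM benzylamine, DAO 1 mM putrescine. Resorufin fluorescence read after 1 h; IC50 by four-parameter logistic fit.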

[3] = target: T3, recombinant human MAO-B (monoamine oxidase-B) (Homo sapiens, UniProt P27338); assay: Amplex Red HRP-coupled amine oxidase assay, recombinant human MAO-B; assay type: biochemical; conditions: 1 mM benzylamine substrate, read-out: Inhibitory activity (IC50, nM) MAO-B
T3 construct: purchased Sigma-Aldrich
T3 sequence (P27338 1-520): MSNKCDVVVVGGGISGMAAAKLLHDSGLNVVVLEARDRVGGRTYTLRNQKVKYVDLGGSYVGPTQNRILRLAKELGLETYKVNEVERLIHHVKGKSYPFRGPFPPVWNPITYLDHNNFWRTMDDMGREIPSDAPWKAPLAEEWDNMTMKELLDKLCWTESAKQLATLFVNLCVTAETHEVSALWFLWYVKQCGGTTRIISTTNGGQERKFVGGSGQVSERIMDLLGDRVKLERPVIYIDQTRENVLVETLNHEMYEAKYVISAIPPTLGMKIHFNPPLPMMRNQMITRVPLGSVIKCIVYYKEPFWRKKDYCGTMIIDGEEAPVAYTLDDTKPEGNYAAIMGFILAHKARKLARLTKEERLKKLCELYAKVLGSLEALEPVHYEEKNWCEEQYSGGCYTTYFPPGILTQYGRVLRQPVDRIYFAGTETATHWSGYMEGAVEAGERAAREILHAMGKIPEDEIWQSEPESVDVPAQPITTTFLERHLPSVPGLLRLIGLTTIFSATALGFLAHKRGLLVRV
Outline: as §1

[4] = target: T4, recombinant human DAO (diamine oxidase) (Homo sapiens, UniProt P19801); assay: Amplex Red HRP-coupled amine oxidase assay, recombinant human DAO; assay type: biochemical; conditions: 1 mM putrescine substrate, read-out: Inhibitory activity (IC50, nM) DAO
T4 construct: purchased R&D systems
T4 sequence (P19801 20-751): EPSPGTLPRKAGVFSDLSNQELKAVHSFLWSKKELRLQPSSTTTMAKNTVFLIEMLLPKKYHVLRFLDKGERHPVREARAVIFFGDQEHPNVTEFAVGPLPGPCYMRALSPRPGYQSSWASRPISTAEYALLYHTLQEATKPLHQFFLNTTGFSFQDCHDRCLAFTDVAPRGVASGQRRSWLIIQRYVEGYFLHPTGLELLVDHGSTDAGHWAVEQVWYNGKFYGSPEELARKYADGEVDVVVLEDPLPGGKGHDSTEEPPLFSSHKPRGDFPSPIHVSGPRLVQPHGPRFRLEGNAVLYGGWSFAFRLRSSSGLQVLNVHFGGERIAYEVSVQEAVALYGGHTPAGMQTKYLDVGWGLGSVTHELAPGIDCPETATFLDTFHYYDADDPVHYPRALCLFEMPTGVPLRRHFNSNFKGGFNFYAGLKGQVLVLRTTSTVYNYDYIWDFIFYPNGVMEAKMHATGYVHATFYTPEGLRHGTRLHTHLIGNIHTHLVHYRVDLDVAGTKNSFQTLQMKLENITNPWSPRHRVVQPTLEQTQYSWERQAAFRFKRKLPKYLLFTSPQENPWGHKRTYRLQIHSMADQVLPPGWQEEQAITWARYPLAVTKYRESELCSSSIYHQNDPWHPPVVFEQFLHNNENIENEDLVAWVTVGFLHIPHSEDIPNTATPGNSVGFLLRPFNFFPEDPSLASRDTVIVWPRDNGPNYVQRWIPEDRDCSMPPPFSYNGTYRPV
Outline: as §1

[5] = test system: mouse bleomycin-mediated lung injury model; conditions: cited from earlier work
[6] = test system: UUO animal model causing kidney disease; conditions: cited from earlier work

Structure (SMILES) | IC50 [1] [nM] | IC50 [2] [nM] | IC50 [3] [nM] | IC50 [4] [nM] | fibrosis [5] | renal fibrosis [6]
CNS(=O)(=O)c1cccc(-c2cccc3c2nnn3C/C(F)=C/CN)c1 [Example 111, (Z)-3-(1-(4-amino-2-fluorobut-2-en-1-yl)-1H-benzo[d][1,2,3]triazol-4-yl)-N-methylbenzenesulfonamide hydrochloride] | 35 | > 100000 | > 100000 | 30700 | – | –
CN(C)S(=O)(=O)c1cccc(-c2cccc3c2nnn3C/C(F)=C/CN)c1 [Example 112, (Z)-3-(1-(4-amino-2-fluorobut-2-en-1-yl)-1H-benzo[d][1,2,3]triazol-4-yl)-N,N-dimethylbenzenesulfonamide hydrochloride] | 15 | > 100000 | 26500 | 32100 | – | –
CNS(=O)(=O)c1ccc(OC)c(-c2cc(C(=O)OC)cc3c2nnn3C/C(F)=C/CN)c1 [Example 117, methyl (Z)-1-(4-amino-2-fluorobut-2-en-1-yl)-4-(2-methoxy-5-(N-methylsulfamoyl)phenyl)-1H-benzo[d][1,2,3]triazol-6-carboxylate hydrochloride] | 11.9 | > 100000 | 46600 | 4440 | – | –
CCN(CC)S(=O)(=O)c1ccc(OC)c(-c2cc(C(=O)OC)cc3c2nnn3C/C(F)=C/CN)c1 [Example 119, methyl (Z)-1-(4-amino-2-fluorobut-2-en-1-yl)-4-(5-(N,N-diethylsulfamoyl)-2-methoxyphenyl)-1H-benzo[d][1,2,3]triazol-6-carboxylate hydrochloride] | 47.3 | > 100000 | > 100000 | 14500 | – | –
CNS(=O)(=O)c1ccc(OC)c(-c2cc(C#N)cc3c2ncn3C/C(F)=C/CN)c1 [Example 183, (Z)-3-(1-(4-amino-2-fluorobut-2-en-1-yl)-6-cyano-1H-benzo[d]imidazol-4-yl)-4-methoxy-N-methylbenzenesulfonamide hydrochloride] | 35.1 | > 100000 | > 100000 | 1820 | – | –
Cc1cc(-c2cc(C#N)cc3c2ncn3C/C(F)=C/CN)n(C)n1 [Example 194, (Z)-1-(4-amino-2-fluorobut-2-en-1-yl)-4-(1,3-dimethyl-1H-pyrazol-5-yl)-1H-benzo[d]imidazol-6-carbonitrile hydrochloride] | 105 | 36800 | > 100000 | 7590 | – | –
NCc1cc(Oc2cccc(C(=O)N3C[C@@H](O)[C@H](F)C3)c2)nc(C(F)(F)F)c1 [PAT-1251] | – | – | – | – | significantly reduced fibrosis | –
NC/C=C(\F)CS(=O)(=O)c1cccc2cccnc12 [PXS-5505] | – | – | – | – | – | significantly reduced renal fibrosis

More lines, main results first:

IC50 [1] [nM] | IC50 [2] [nM] | IC50 [3] [nM] | IC50 [4] [nM] | Structure (SMILES) | fibrosis [5] | renal fibrosis [6]
273 | 26900 | > 100000 | 5400 | CC(=O)c1ccc(F)c(-c2cc(C(F)(F)F)cc3c2ncn3C/C(F)=C/CN)c1 [Example 169, (Z)-1-(3-(1-(4-amino-2-fluorobut-2-en-1-yl)-6-(trifluoromethyl)-1H-benzo[d]imidazol-4-yl)-4-fluorophenyl)ethan-1-one hydrochloride] | – | –
311 | 17800 | 51600 | 3520 | NC/C=C(\F)Cn1cnc2c(-c3cccnc3)cc(C(F)(F)F)cc21 [Example 172, (Z)-3-fluoro-4-(4-(pyridin-3-yl)-6-(trifluoromethyl)-1H-benzo[d]imidazol-1-yl)but-2-en-1-amine hydrochloride] | – | –
269 | 15400 | > 100000 | 3730 | NC/C=C(\F)Cn1cnc2c(-c3cncc(F)c3)cc(C(F)(F)F)cc21 [Example 173, (Z)-3-fluoro-4-(4-(5-fluoropyridin-3-yl)-6-(trifluoromethyl)-1H-benzo[d]imidazol-1-yl)but-2-en-1-amine hydrochloride] | – | –
304 | 81200 | > 100000 | 2210 | NC/C=C(\F)Cn1cnc2c(-c3cncc(Cl)c3)cc(C(F)(F)F)cc21 [Example 174, (Z)-4-(4-(5-chloropyridin-3-yl)-6-(trifluoromethyl)-1H-benzo[d]imidazol-1-yl)-3-fluoro-but-2-en-1-amine hydrochloride] | – | –
259 | > 100000 | > 100000 | 2580 | NC/C=C(\F)Cn1cnc2c(-c3cncnc3)cc(C(F)(F)F)cc21 [Example 175, (Z)-3-fluoro-4-(4-(pyrimidin-5-yl)-6-(trifluoromethyl)-1H-benzo[d]imidazol-1-yl)but-2-en-1-amine hydrochloride] | – | –
92.4 | > 100000 | > 100000 | 26700 | Cn1nccc1-c1cc(C(F)(F)F)cc2c1ncn2C/C(F)=C/CN [Example 176, (Z)-3-fluoro-4-(4-(1-methyl-1H-pyrazol-5-yl)-6-(trifluoromethyl)-1H-benzo[d]imidazol-1-yl) but-2-en-1-yl-amine hydrochloride] | – | –
159 | > 100000 | > 100000 | 5560 | N#Cc1cc(-c2ccn(CCO)n2)c2ncn(C/C(F)=C/CN)c2c1 [Example 195, (Z)—1-(4-amino-2-fluorobut-2-en-1-yl)-4-(1-(2-hydroxyethyl)-1H-pyrazol-3-yl)-1H-benzo[d]imidazol-6-carbonitrile hydrochloride] | – | –
